The target in data set [1] is BCL2 (G101V) (Homo sapiens (Human), UniProt P10415, G101V). As to the kind of experiment: Molecular level activity test of anti-apoptotic protein BCL2 (G101V) (HTRF, binding to Bim peptide). Particulars: inhibition of BCL2 (G101V) binding to Bim peptide, read-out: BCL-2 (G101V). In outline: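 His-tagged recombinant BCL2 (G101V) incubated 1 h with biotin-BIM peptide and compound (2% DMSO), then anti-His and streptavidin-XL665 detection reagents added for 4 h at room temperature. HTRF signal reflects compound effect on BCL2–BIM binding.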
(In TR-FRET formats the signal depends on donor and acceptor labels being close together.)

Data set [2] concerns the target BCL2 (Homo sapiens (Human), UniProt P10415). The data set can be described thus: Molecular level activity test of anti-apoptotic protein BCL2 (HTRF, binding to Bim peptide). Particulars: HTRF, binding of BCL2 to Bim peptide; read-out: BCL2 nM (inhibitory activity, IC50). The method in brief:
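Disruption of the BCL2/Bim peptide interaction is detected by homogeneous time-resolved fluorescence, using anti-His and streptavidin-XL665 reagents against His-tagged protein and biotin-tagged peptide. Compound exposure lasts 1 h before reagent addition; plates then sit 4 h at room temperature.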

The target in data set [3] is BCL2 (D103Y) (Homo sapiens (Human), UniProt P10415, D103Y). The data set can be described thus: Molecular level activity test of BCL2 (D103Y) (HTRF, binding to Bim peptide). Particulars: read-out: BCL-2 (D103Y) (nM) (inhibitory activity, IC50). In outline: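 His-tagged recombinant protein mixed with biotinylated BIM peptide and compound (2% DMSO), reacted 1 h. Anti-His and streptavidin-XL665 detection reagents then added and incubated 4 h at room temperature before HTRF read-out of binding inhibition.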

The subject of data set [4] is RS4; 11 cells. The data set can be described thus: Tumor proliferation inhibitory activity test (MTS) on RS4; 11. It counts as cell-based. The conditions noted are these: Homo sapiens, RS4-11, 72 h, 3 days incubation. In outline:
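RS4;11 cells were exposed to serially diluted compound (0.2% DMSO control) for 3 days at 37 °C/5% CO2, followed by MTS for 3–4 h. Read-out was OD490−OD690, and inhibition was calculated relative to the DMSO and blank wells.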

Data set [5] has as its target BCL-XL (Homo sapiens (Human), UniProt Q07817). The data set can be described thus: BCL-XL enzyme molecular level activity test (HTRF, binding to BIM peptide). Particulars: binding of BCL-XL to BIM peptide, read-out: BCL-XL inhibitory activity (IC50). The method in brief: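 HTRF binding assay: His-tagged recombinant BCL-XL with biotin-BIM peptide and compound (2% DMSO), 1 h. Anti-His and streptavidin-XL665 detection reagents added, 4 h at room temperature. Excitation 320 nm; 665/615 nm ratio reflects binding, with no-protein background and no-compound full-binding controls.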

Data set [6] concerns the target human CYP3A4 enzyme (Homo sapiens (Human), UniProt P08684). As to the kind of experiment: CYP3A4 enzyme inhibitory activity (Vivid CYP3A4 Green screening kit).
The mark [7] stands for this setting: read-out: CYP3A4 (IC50), Vivid CYP3A4 Green screening kit.

pIC50: −log10 of the molar value. Where two headings read alike, the source gives them in different places.

Here are results for nine compounds from patent publication US20250034135A1, “ANTI-APOPTOTIC PROTEIN BCL-2 INHIBITOR, PHARMACEUTICAL COMPOSITION AND USES THEREOF” (HANGZHOU HEALZEN THERAPEUTICS CO., LTD., priority 2021, published 2025).

BCL-XL, sequence (Q07817 whole entry): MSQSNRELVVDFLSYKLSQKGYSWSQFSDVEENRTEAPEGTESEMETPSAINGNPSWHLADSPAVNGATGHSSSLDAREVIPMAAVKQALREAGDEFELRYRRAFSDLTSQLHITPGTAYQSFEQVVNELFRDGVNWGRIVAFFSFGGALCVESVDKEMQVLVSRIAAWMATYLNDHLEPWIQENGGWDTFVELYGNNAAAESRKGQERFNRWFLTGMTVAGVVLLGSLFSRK
human CYP3A4 enzyme, sequence (P08684 whole entry): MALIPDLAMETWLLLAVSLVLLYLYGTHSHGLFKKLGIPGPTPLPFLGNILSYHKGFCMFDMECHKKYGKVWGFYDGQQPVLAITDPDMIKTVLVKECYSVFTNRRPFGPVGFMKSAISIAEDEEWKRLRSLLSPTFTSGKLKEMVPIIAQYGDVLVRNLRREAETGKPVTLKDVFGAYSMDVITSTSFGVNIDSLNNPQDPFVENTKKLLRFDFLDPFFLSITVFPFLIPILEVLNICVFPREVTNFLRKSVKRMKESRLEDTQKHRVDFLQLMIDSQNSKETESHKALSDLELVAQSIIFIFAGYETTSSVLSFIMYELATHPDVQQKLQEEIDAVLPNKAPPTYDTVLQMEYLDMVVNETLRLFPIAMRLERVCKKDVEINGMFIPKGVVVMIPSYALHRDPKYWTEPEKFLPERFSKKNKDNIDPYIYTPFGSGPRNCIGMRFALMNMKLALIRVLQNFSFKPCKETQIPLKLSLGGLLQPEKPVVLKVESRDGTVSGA

Broadly, the IC50 is the point on the concentration scale where inhibition reaches its midpoint. Take `CC(C)c1ccccc1[C@@H]1CN(Cc2cccc(F)c2F)CCN1C1CC2(CCN(c3cc(Oc4cnc5[nH]ccc5c4)c(C(=O)NS(=O)(=O)c4ccc(NCC5(F)CCOCC5)c([N+](=O)[O-])c4)cc3F)CC2)C1` [compound 189, (R)-2-((1H-pyrrolo[2,3-b]pyrid-5-yl)oxy)-4-(2-(4-(2,3-difluorobenzyl)-2-(2-isopropylphenyl)piperazin-1-yl)-7-azaspiro[3.5]non-7-yl)-5-fluoro-N-((4-(((4-fluorotetrahydro-2H-pyran-4-yl)methyl)amino)-3-nitrophenyl)sulfonyl)benzamide]: the pIC50 was greater than 8.00 in data set [1], greater than 8.00 in data set [2], greater than 9.30 in data set [4] and less than 4.70 in data set [6] (setting [7]). Moreover, the values for the IC50 in data set [3] and in data set [5] (values given in μM) were less than 10 nM and 1.9 µM, respectively.

With `COc1ccc(CN2CCN(C3CC4(CCN(c5cc(Oc6cnc7[nH]ccc7c6)c(C(=O)NS(=O)(=O)c6cc([N+](=O)[O-])c(NCC7(F)CCOCC7)c7[nH]cnc67)cn5)CC4)C3)[C@H](c3ccccc3C(C)C)C2)cc1` [compound 268, (R)-4-((1H-pyrrolo[2,3-b]pyrid-5-yl)oxy)-N-((7-(((4-fluorotetrahydro-2H-pyran-4-yl)methyl)amino)-6-nitro-1H-benzo[d]imidazol-4-yl)sulfonyl)-6-(2-(2-(2-isopropylphenyl)-4-(4-methoxybenzyl)piperazin-1-yl)-7-azaspiro[3.5]non-7-yl) nicotinamide], the pIC50 is greater than 8.00 in data set [1], greater than 8.00 in data set [2], greater than 9.30 in data set [4] and less than 4.70 in data set [6] (setting [7]). Also, the IC50 in data set [3] is less than 10 nM; in data set [5] (values in nM), greater than 0.5 µM.

Take `COc1ccc(CN2CCN(C3CC4(CCN(c5cc(Oc6cnc7[nH]ccc7c6)c(C(=O)NS(=O)(=O)c6cc([N+](=O)[O-])c(NCC7(F)CCOCC7)c7[nH]cnc67)cc5F)CC4)C3)[C@H](c3ccccc3C(C)C)C2)cc1` [compound 264, (R)-2-((1H-pyrrolo[2,3-b]pyrid-5-yl)oxy)-5-fluoro-N-((7-(((4-fluorotetrahydro-2H-pyran-4-yl)methyl)amino)-6-nitro-1H-benzo[d]imidazol-4-yl)sulfonyl)-4-(2-(2-(2-isopropylphenyl)-4-(4-methoxybenzyl)piperazin-1-yl)-7-azaspiro[3.5]non-7-yl)benzamide]: the pIC50 was greater than 8.00 in data set [1], greater than 8.00 in data set [2], 9.00 to 9.30 in data set [4] and less than 4.70 in data set [6] (setting [7]). For the same compound, the IC50 in data set [3] is less than 10 nM.

As for `COc1ccc(CN2CCN(C3CC4(CCN(c5cc(Oc6cnc7[nH]ccc7c6)c(C(=O)NS(=O)(=O)c6ccc(NCC7CCOCC7)c([N+](=O)[O-])c6)cn5)CC4)C3)C(c3ccccc3C(C)C)C2)cc1` (stereo not drawn) [compound 063, 4-((1H-pyrrolo[2,3-b]pyrid-5-yl)oxy)-6-(2-(2-(2-isopropylphenyl)-4-(4-methoxybenzyl)piperazin-1-yl)-7-azaspiro[3.5]non-7-yl)-N-((3-nitro-4-(((tetrahydro-2H-pyran-4-yl)methyl)amino)phenyl)sulfonyl) nicotinamide], the pIC50 was greater than 8.00 in data set [1], greater than 8.00 in data set [2], greater than 9.30 in data set [4] and less than 4.70 in data set [6] (setting [7]). The IC50 in data set [3] is less than 10 nM; in data set [5] (values given in μM), greater than 1 µM.

`COc1ccc(CN2CCN(C3CC4(CCN(c5cc(Oc6cnc7[nH]ccc7c6)c(C(=O)NS(=O)(=O)c6cc([N+](=O)[O-])c(NCC7CCOCC7)c7[nH]cnc67)cc5F)CC4)C3)[C@H](c3ccccc3C(C)C)C2)cc1` [compound 263, (R)-2-((1H-pyrrolo[2,3-b]pyrid-5-yl)oxy)-5-fluoro-4-(2-(2-(2-isopropylphenyl)-4-(4-methoxybenzyl)piperazin-1-yl)-7-azaspiro[3.5]non-7-yl)-N-((6-nitro-7-(((tetrahydro-2H-pyran-4-yl)methyl)amino)-1H-benzo[d]imidazol-4-yl)sulfonyl)benzamide]: the pIC50 in data set [1] is greater than 8.00; in data set [2], greater than 8.00; in data set [4], 9.00 to 9.30; in data set [6] (setting [7]) it was less than 4.70. In addition, the IC50 in data set [3] was less than 10 nM; in data set [5] (values given in μM), 1.3 µM.

For `COc1ccc(CN2CCN(C3CC4(CCN(c5cc(Oc6cnc7[nH]ccc7c6)c(C(=O)NS(=O)(=O)c6cc([N+](=O)[O-])c(NC[C@H]7CC[C@](C)(O)CC7)c7[nH]cnc67)cc5F)CC4)C3)[C@H](c3ccccc3C(C)C)C2)cc1` [compound 262, 2-((1H-pyrrolo[2,3-b]pyrid-5-yl)oxy)-5-fluoro-N-((7-((((1r,4r)-4-hydroxy-4-methylcyclohexyl)methyl)amino)-6-nitro-1H-benzo[d]imidazol-4-yl)sulfonyl)-4-(2-((R)-2-(2-isopropylphenyl)-4-(4-methoxybenzyl)piperazin-1-yl)-7-azaspiro[3.5]non-7-yl)benzamide], the pIC50 in data set [1] is greater than 8.00; in data set [2] it was greater than 8.00; in data set [4], 9.00 to 9.30; in data set [6] (setting [7]), less than 4.70. Moreover, the IC50 in data set [3] is less than 10 nM; in data set [5] (values given in μM), greater than 1 µM.

As to `COc1ccc(CN2CCN(C3CC4(CCN(c5cc(Oc6cnc7[nH]ccc7c6)c(C(=O)NS(=O)(=O)c6ccc(NCC7(F)CCOCC7)c([N+](=O)[O-])c6)cn5)CC4)C3)[C@H](c3ccccc3C(C)C)C2)cc1` [compound 258, (R)-4-((1H-pyrrolo[2,3-b]pyrid-5-yl)oxy)-N-((4-(((4-fluorotetrahydro-2H-pyran-4-yl)methyl)amino)-3-nitrophenyl)sulfonyl)-6-(2-(2-(2-isopropylphenyl)-4-(4-methoxybenzyl)piperazin-1-yl)-7-azaspiro[3.5]non-7-yl) nicotinamide], the pIC50 was greater than 8.00 in data set [1], greater than 8.00 in data set [2], greater than 9.30 in data set [4] and less than 4.70 in data set [6] (setting [7]). In addition, the IC50 in data set [3] was less than 10 nM.

With `CC(C)c1ccccc1[C@@H]1CCCN1C1CC2(CCN(c3ccc(C(=O)NS(=O)(=O)c4cc([N+](=O)[O-])c(NCC5(F)CCN(C6COC6)CC5)c5[nH]cnc45)c(Oc4cnc5[nH]ccc5c4)c3)CC2)C1` [compound 002], the pIC50 in data set [1] is greater than 8.00; in data set [2] it was greater than 8.00; in data set [4], 9.00 to 9.30; in data set [6], less than 4.70. For the same compound, the results for the IC50 in data set [3] and in data set [5] (values in nM) were less than 10 nM and greater than 0.5 µM, respectively.

For the compound `COc1ccc(CN2CCN(C3CC4(CCN(c5ccc(C(=O)NS(=O)(=O)c6cc([N+](=O)[O-])c(NC[C@H]7CC[C@](C)(O)CC7)c7[nH]cnc67)c(Oc6cnc7[nH]ccc7c6)c5)CC4)C3)[C@H](c3ccccc3C(C)C)C2)cc1` [compound 259, 2-((1H-pyrrolo[2,3-b]pyrid-5-yl)oxy)-N-((7-((((1r,4r)-4-hydroxy-4-methylcyclohexyl)methyl)amino)-6-nitro-1H-benzo[d]imidazol-4-yl)sulfonyl)-4-(2-((R)-2-(2-isopropylphenyl)-4-(4-methoxybenzyl)piperazin-1-yl)-7-azaspiro[3.5]non-7-yl)benzamide], the pIC50 in data set [1] is greater than 8.00; in data set [2] it was greater than 8.00; in data set [4], greater than 9.30; in data set [6] (setting [7]), less than 4.70. Moreover, the IC50 in data set [3] is less than 10 nM.
